Data published in patent publication US20210238170A1, “5,5-Difluoro- and 5-Fluoro-5-Methyl-C-Glycoside Derivatives Useful As Dual SGLT1 / SGLT2 Modulators” (Janssen Pharmaceutica NV, priority 2018, published 2021).
Where two headings read alike, the source gives them in different places.

How the values were obtained:
[1] = target: T1, human SGLT1 (Homo sapiens, UniProt P13866); assay: SGLT1 in vitro assay: Na-dependent 14C-AMG uptake in CHO-K1 cells stably expressing human SGLT1; assay type: cell-based; details: for inhibition at 0.3 µM: read-out: SGLT1 % Inh @ 0.3 μM
T1 construct: expressed in transfected cells
T1 sequence (P13866 1-664): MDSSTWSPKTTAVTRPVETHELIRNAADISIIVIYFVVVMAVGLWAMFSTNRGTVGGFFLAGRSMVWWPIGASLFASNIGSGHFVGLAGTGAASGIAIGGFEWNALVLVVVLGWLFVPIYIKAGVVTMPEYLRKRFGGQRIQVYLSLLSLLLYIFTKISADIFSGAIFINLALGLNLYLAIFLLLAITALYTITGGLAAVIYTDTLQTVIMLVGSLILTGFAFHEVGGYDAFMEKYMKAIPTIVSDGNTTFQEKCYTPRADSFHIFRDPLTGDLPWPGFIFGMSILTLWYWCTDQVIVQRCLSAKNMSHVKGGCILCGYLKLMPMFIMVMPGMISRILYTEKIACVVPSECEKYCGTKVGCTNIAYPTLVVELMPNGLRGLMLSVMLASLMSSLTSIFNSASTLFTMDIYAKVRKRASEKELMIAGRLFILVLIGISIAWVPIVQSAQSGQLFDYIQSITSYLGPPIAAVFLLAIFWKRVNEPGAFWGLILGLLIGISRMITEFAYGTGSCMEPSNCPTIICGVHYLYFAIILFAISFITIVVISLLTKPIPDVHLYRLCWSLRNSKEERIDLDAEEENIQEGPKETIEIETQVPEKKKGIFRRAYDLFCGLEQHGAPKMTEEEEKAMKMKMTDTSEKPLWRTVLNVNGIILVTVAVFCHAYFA
Procedure, shortened: (§1)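 Sodium-dependent uptake of 14C-α-methyl-glucopyranoside ([…]) over 2 h at 37°C was counted by scintillation in stable human SGLT2- or SGLT1-CHO-K1 lines pretreated with 10 mM Na-butyrate. Compounds at 0.001–10 μM were preincubated for 10 min in pH 7.4 buffer with 137 mM NaCl; output is %-inhibition or IC50.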

[2] = target: T2, human SGLT2 (Homo sapiens, UniProt P31639); assay: SGLT2 in vitro assay: Na-dependent 14C-AMG uptake in CHO-K1 cells stably expressing human SGLT2; assay type: cell-based; details: for inhibition at 0.3 µM: read-out: SGLT2 % Inh @ 0.3 μM
T2 construct: expressed in transfected cells
T2 sequence (P31639 1-672): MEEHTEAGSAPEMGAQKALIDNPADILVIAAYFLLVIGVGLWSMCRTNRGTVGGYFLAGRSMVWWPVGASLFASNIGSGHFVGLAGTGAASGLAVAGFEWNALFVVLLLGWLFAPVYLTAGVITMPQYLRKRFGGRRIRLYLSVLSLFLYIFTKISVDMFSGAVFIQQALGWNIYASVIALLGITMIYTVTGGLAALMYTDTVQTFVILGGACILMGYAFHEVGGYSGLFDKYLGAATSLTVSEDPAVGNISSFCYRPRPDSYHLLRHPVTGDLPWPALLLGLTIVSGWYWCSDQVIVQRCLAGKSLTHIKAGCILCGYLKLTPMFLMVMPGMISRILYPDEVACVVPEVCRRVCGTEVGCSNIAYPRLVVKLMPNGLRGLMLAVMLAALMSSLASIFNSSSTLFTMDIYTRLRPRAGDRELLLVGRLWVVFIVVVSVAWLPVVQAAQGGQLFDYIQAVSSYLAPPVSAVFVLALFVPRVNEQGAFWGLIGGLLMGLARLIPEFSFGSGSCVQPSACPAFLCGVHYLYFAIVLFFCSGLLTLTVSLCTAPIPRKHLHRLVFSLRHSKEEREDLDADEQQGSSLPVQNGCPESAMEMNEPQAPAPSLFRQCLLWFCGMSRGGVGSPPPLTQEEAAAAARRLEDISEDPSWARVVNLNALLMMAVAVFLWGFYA
Procedure, shortened: as §1

[3] = @ 0.3 μM, CHO-K1 cells stably expressing human SGLT1, 14C-AMG uptake
[4] = CHO-K1 cells stably expressing human SGLT1, 14C-AMG uptake, compounds of formula (I) where R0 is fluoro
[5] = @ 0.3 μM, CHO-K1 cells stably expressing human SGLT2, 14C-AMG uptake
[6] = CHO-K1 cells stably expressing human SGLT2, 14C-AMG uptake, compounds of formula (I) where R0 is fluoro
[7] = 0.3 μM, CHO-K1 cells expressing human SGLT1
[8] = CHO-K1 cells expressing human SGLT1, 14C-AMG uptake
[9] = 0.3 μM, CHO-K1 cells expressing human SGLT2
[10] = CHO-K1 cells expressing human SGLT2, 14C-AMG uptake

| inhibition at 0.3 µM [1, 3] | IC50 [1, 4] | inhibition at 0.3 µM [2, 5] | IC50 [2, 6] | SGLT1 % Inh @ 0.3 μM [1, 3] | SGLT2 % Inh @ 0.3 μM [2, 5] | SMILES | further results |
| --- | --- | --- | --- | --- | --- | --- | --- |
| 40.9% | 0.708 µM | 79.6% | 0.0173 µM |  |  | COc1cc(O)c([C@@H]2O[C@H](CO)C(F)(F)[C@H](O)[C@H]2O)cc1Cc1ccc2c(c1)CCO2 [Compound 62, (2S,3R,4R,6R)-2-[5-(2,3-dihydrobenzofuran-5-ylmethyl)-2-hydroxy-4-methoxy-phenyl]-5,5-difluoro-6-(hydroxymethyl)tetrahydropyran-3,4-diol] |  |
|  |  |  |  | 30.6% | 89.3% | COc1cc(C)c(Cc2ccc(C3CC3)cc2)cc1[C@@H]1O[C@H](CO)C(F)(F)[C@H](O)[C@H]1O [Compound 123] |  |
| 44.3% | 0.302 µM | 84.4% | 0.005 µM |  |  | COc1c([C@@H]2O[C@H](CO)C(F)(F)[C@H](O)[C@H]2O)cc(Cc2ccc3c(c2)OCCO3)c2c1CCO2 [Compound 76] |  |
| 75.5% | 0.158 µM | 90.3% | 0.001 µM |  |  | Cc1cc(O)c([C@@H]2O[C@H](CO)C(F)(F)[C@H](O)[C@H]2O)cc1Cc1ccc(C2CC2)cc1 [Compound 124, (2S,3R,4R,6R)-2-(5-(4-cyclopropylbenzyl)-2-hydroxy-4-methylphenyl)-5,5-difluoro-6-(hydroxymethyl)-tetrahydro-2H-pyran-3,4-diol] |  |
| 75% | 0.095 µM | 82.4% | 0.0057 µM |  |  | Cc1cc(O)c([C@@H]2O[C@H](CO)C(F)(F)[C@H](O)[C@H]2O)cc1Cc1ccc(Cl)s1 [Compound 110] |  |
| 41.8% | 0.895 µM | 52.8% | 0.0263 µM |  |  | COc1cc(O)c([C@@H]2O[C@H](CO)C(F)(F)[C@H](O)[C@H]2O)cc1Cc1ccc2c(c1)OCCO2 [Compound 54, (2S,3R,4R,6R)-2-[5-(2,3-dihydro-1,4-benzodioxin-6-ylmethyl)-2-hydroxy-4-methoxy-phenyl]-5,5-difluoro-6-(hydroxymethyl)tetrahydropyran-3,4-diol] |  |
|  |  |  |  | 39.3% | 87.4% | COc1c([C@@H]2O[C@H](CO)C(F)(F)[C@H](O)[C@H]2O)cc(Cc2ccc(C3CC3)cc2)c2c1CCO2 [Compound 183] |  |
|  |  |  |  | 36.8% | 80.6% | OC[C@H]1O[C@@H](c2cc(Cc3ccc4c(c3)CCO4)c(Cl)c3c2OCC3)[C@H](O)[C@@H](O)C1(F)F [Compound 114] |  |
| 73% | 0.066 µM | 87.8% | 0.0164 µM |  |  | CCc1cc(O)c([C@@H]2OC3(CC3)C(F)(F)[C@H](O)[C@H]2O)cc1Cc1ccc2c(c1)OCCO2 [Compound 94] |  |
|  |  |  |  | 47.4% | 65.9% | CCc1ccc(Cc2cc([C@@H]3O[C@H](CO)C(F)(F)[C@H](O)[C@H]3O)c(OC)c3c2OCC3)cc1 [Compound 38] |  |
| 50.8% | 0.326 µM | 86.8% | 0.0005 µM |  |  | COc1cc(Cl)c(Cc2ccc3c(c2)OCC3)cc1[C@@H]1O[C@H](CO)C(F)(F)[C@H](O)[C@H]1O [Compound 115] |  |

More lines, now with the values behind:

| SMILES | inhibition at 0.3 µM [1, 3] | IC50 [1, 4] | inhibition at 0.3 µM [2, 5] | IC50 [2, 6] | SGLT1 % Inh @ 0.3 μM [1, 3] | SGLT2 % Inh @ 0.3 μM [2, 5] | further results |
| --- | --- | --- | --- | --- | --- | --- | --- |
| Cc1cc(O)c([C@@H]2O[C@H](CO)[C@@](C)(F)[C@H](O)[C@H]2O)cc1Cc1ccc(OCF)cc1 (stereo in doubt) [Compound 23, (2S,3R,4R,5S,6R)-5-fluoro-2-(5-(4-(fluoromethoxy)benzyl)-2-hydroxy-4-methylphenyl)-6-(hydroxymethyl)-5-methyl-tetrahydro-2H-pyran-3,4-diol] |  |  |  |  |  |  | inhibition at 0.3 µM [1, 7]: 54%; IC50 [1, 8]: 0.319 µM; inhibition at 0.3 µM [2, 9]: 88%; IC50 [2, 10]: 0.0028 µM |
| COc1cc(OC)c(C2OC(CO)C(C)(F)C(O)C2O)cc1Cc1ccc2c(c1)CCCO2 (stereo not shown) [Compound 4] |  |  |  |  |  |  | SGLT1 % Inh @ 0.3 μM [1, 7]: 0.9%; SGLT2 % Inh @ 0.3 μM [2, 9]: 73.4% |
| Cc1cc(O)c([C@@H]2O[C@H](CO)[C@@](C)(F)[C@H](O)[C@H]2O)cc1Cc1cc2ccccc2s1 [Compound 1] |  |  |  |  |  |  | inhibition at 0.3 µM [1, 7]: 57.6%; IC50 [1, 8]: 0.198 µM; IC50 [2, 10]: 0.0196 µM |
| C[C@]1(F)[C@H](O)[C@@H](O)[C@H](c2cc(Cc3cc4ccccc4s3)c(Cl)cc2O)O[C@@H]1CO [Compound 10, (2S,3R,4R,5S,6R)-2-[5-(benzothiophen-2-ylmethyl)-4-chloro-2-hydroxy-phenyl]-5-fluoro-6-(hydroxymethyl)-5-methyl-tetrahydropyran-3,4-diol] |  |  |  |  |  |  | inhibition at 0.3 µM [1, 7]: 41.7%; IC50 [1, 8]: 0.287 µM; inhibition at 0.3 µM [2, 9]: 87.8%; IC50 [2, 10]: 0.0102 µM |
| COc1ccc(Cc2ccc(O)c([C@@H]3O[C@H](CO)C(F)(F)[C@H](O)[C@H]3O)c2)cc1 [Compound 86] |  |  |  |  | 17.4% | 69.5% |  |
| COc1cc(C)c(Cc2cc3cc(F)ccc3s2)cc1[C@@H]1O[C@H](CO)C(F)(F)[C@H](O)[C@H]1O [Compound 53] |  |  |  |  | 0.0% | 87.1% |  |
| COC(=O)N1CCc2sc(Cc3cc([C@@H]4O[C@H](CO)C(F)(F)[C@H](O)[C@H]4O)c(O)cc3Cl)cc2C1 [Compound 64] |  |  |  |  | 6.2% | 67.1% |  |
| COc1cc(O)c([C@@H]2O[C@H](CO)C(F)(F)[C@H](O)[C@H]2O)cc1Cc1cc2ccccc2s1 [Compound 31, (2S,3R,4R,6R)-2-[5-(benzothiophen-2-ylmethyl)-2-hydroxy-4-methoxy-phenyl]-5,5-difluoro-6-(hydroxymethyl)tetrahydropyran-3,4-diol] |  | 0.165 µM |  | 0.0241 µM |  |  |  |
| Cc1cc(O)c([C@@H]2O[C@H](CO)C(F)(F)[C@H](O)[C@H]2O)cc1Cc1ccc(OC(F)(F)F)cc1 [Compound 99, (2S,3R,4R,6R)-5,5-difluoro-2-(2-hydroxy-4-methyl-5-(4-(trifluoromethoxy)benzyl)phenyl)-6-(hydroxymethyl)-tetrahydro-2H-pyran-3,4-diol] | 17.3% |  | 84.7% |  |  |  |  |
| CCc1csc(Cc2cc([C@@H]3O[C@H](CO)C(F)(F)[C@H](O)[C@H]3O)c(O)cc2C)c1 [Compound 182] | 60.2% | 0.04 µM | 83.6% | 0.0013 µM |  |  |  |
| CCc1ccc(Cc2cc([C@@H]3O[C@H](CO)C(F)(F)[C@H](O)[C@H]3O)c(OC)cc2C)cc1 [Compound 129] |  |  |  |  | 16.4% | 87.1% |  |
| Cc1cc(OCC#N)c([C@@H]2O[C@H](CO)C(F)(F)[C@H](O)[C@H]2O)cc1Cc1cc2ccccc2s1 [Compound 40, 2-[4-(benzothiophen-2-ylmethyl)-2-[(2S,3R,4R,6R)-5,5-difluoro-3,4-dihydroxy-6-(hydroxymethyl)tetrahydropyran-2-yl]-5-methyl-phenoxy]acetonitrile] | 54% | 0.176 µM | 85.4% | 0.0035 µM |  |  |  |
| COc1cc(C)c(Cc2cc3c(s2)CCN(C(=O)N2CCCC2)C3)cc1[C@@H]1O[C@H](CO)C(F)(F)[C@H](O)[C@H]1O [Compound 78] |  |  |  |  | 28.0% | 71.5% |  |
| Cc1cc(O)c([C@@H]2O[C@H](CO)C(F)(F)[C@H](O)[C@H]2O)cc1Cc1ccc(-c2cccc(F)c2)s1 [Compound 71] |  |  |  |  | 21.6% | 76.8% |  |
